The values below come from patent US11479531B2, “Deoxyuridine triphosphatase inhibitors” (University of Southern California, priority 2015, dated 2022).

Experiment [1] has as its system colorectal (HCT116), breast (MCF-7) and non-small cell lung (H1299, A549, H358 and H460) cell line models. Put plainly: Colony forming assay. It is filed as cell-based. The settings on record: increasing concentrations of FUdR between 0.5 and 2.5 μmol/L; all cell lines evaluated. As for the experimental part: Colony forming assay showing the ability of colon (SW620, HCT116), non-small cell lung (A549, H460, H1299 and H358) and breast (MCF7) cancer cells to survive and proliferate following transient 24 hour exposure to test compounds, FUdR and combinations are determined. Specifically, cells are seeded at densities between 50 and 100 cells/well in 24-well plates. […] After 24 hours, drug is removed, cells are rinsed and allowed to outgrow for 10-14 days. At the conclusion of the outgrowth, cells are fixed in 60% ice cold methanol and stained with 0.1% crystal violet, scanned and counted. Data is presented as percentage of untreated controls (mean±SD). Fraction affected and combination indexes are calculated according to the method of Chou and Talalay where <1 is indicative of a synergistic drug interaction.
Colony forming assays are performed to evaluate the effectiveness of test compounds alone and in combination with the fluoropyrimidine thymidylate synthase (TS) inhibitor fluorodeoxyuridine (FUdR) at reducing cancer cell viability in colorectal (HCT116), breast (MCF-7) and non-small cell lung (H1299, A549, H358 and H460) cell line models.

Experiment [2] relates to colorectal (HCT116 and SW620) cell line models. Put plainly: MTS growth inhibition assay. The settings on record: increasing concentrations of 5-FU between 0 and 100 μmol/L; both colorectal cancer cell lines (HCT116, SW620). The format is cell-based. As for the experimental part:
The Cell Titer AQueous MTS assay (Promega) is carried out according to the manufacturers guidelines. […] The combination effect is determined by the combination index (CI) method utilizing Calcusyn software (Biosoft, Ferguson, Mo.). […] CI values <1, synergism; 1-1.2, additive and >1.2, antagonism.
Test compounds are evaluated for their antitumor activity in colorectal cancer cells using the MTS growth inhibition assay. HCT116 and SW620 cells are exposed to increasing concentrations of each agent for 72 hours and growth inhibition is directly compared to vehicle-treated controls. The NSCLC cell lines A549 and H1299 are exposed to increasing concentrations of each agent for 72 hours and growth inhibition is directly compared to vehicle-treated controls.
Simultaneous treatment with increasing concentrations of 5-FU and a test compound at fixed concentrations of 25 μmol/L is determined.
A general note: Tetrazolium dyes change colour on reduction, which living cells bring about.

Take `O=c1[nH]c(=O)n([C@H]2C[C@H](O)[C@@H](CO)O2)cc1F` [FUdR, fluorodeoxyuridine]: in experiment [1], the colonies formed entry was “dose-dependent decreases in colonies formed”.
For `O=c1[nH]cc(F)c(=O)[nH]1` [5-FU, 5-fluorouracil], in experiment [2], the growth inhibition entry is reported as “dose-dependent increases in growth inhibition”.
